Series [1] can be described thus: solubility in water. It counts as physicochemical. The settings on record: dihydrochloride; data omitted.
In series [2] the target is T1, integrin αvβ3 (vitronectin receptor purified from the human placenta) (Homo sapiens, UniProt P05106+P06756).
T1 construct: a vitronectin receptor (protein content: 118 mg/ml) purified from the human placenta; from tissue; host or cells: human placenta
Put plainly: αvβ3 binding assay (vitronectin-vitronectin receptor binding assay). The settings on record: vitronectin binding to vitronectin receptor purified from human placenta; read-out: integrin αvβ3 antagonistic activity (IC50). On the procedure: Pharmacological Test Example 1: αvβ3 Binding Assay
Integrin αvβ3 antagonistic activity was first measured in a vitronectin-vitronectin receptor binding assay system in accordance with the method of Kouns et al. (W. C. Kouns, D. Kirchhofer, P. Hadvary, A. Edenhofer, T. Weller, G. Pfenninger, H. R. Baumgartner, L. K. Jennings and B. Steiner, Blood, 80, 2539-2547 (1992)). […] A 0.1 M citric acid buffer (pH 4.3) containing 0.05% NaN3 was added in an amount of […] to stop the reaction, followed by the measurement of the absorbance at 415 nm with a microplate reader (MTP 32, Corona Electric) (reference: 675 nm). The total binding was defined as the absorbance after a reaction using 50 ml of TBS-Tween instead of the test compound, and the non-specific binding (100% inhibition) was defined as the absorbance after a reaction using 50 ml of TBS-Tween containing 2×10^−3 M RGDS. The inhibition was calculated by the following equation: [formula]
IC50 was determined from a primary regression line of the logarithm of each concentration of the test compound and the logarithm of (100-inhibition)/inhibition.

Series [3] addresses GP IIb/IIIa (Homo sapiens, UniProt P05106+P08514). Put plainly: GP IIb/IIIa antagonistic activity (Pharmacological Test 2 in WO 94/21599). It counts as binding. The procedure:
Pharmacological Test Example 2: GP IIb/IIIa Antagonistic Activity and Human Platelet Aggregation Inhibitory Activity
GP IIb/IIIa antagonistic activity was measured for the compounds according to the present invention. The measurement of the GP IIb/IIIa antagonistic activity was carried out according to the method described in Pharmacological Test 2 in WO 94/21599.

The structures appear in SMILES notation.

Sequence of GP IIb/IIIa (P08514 32-887 limits assumed): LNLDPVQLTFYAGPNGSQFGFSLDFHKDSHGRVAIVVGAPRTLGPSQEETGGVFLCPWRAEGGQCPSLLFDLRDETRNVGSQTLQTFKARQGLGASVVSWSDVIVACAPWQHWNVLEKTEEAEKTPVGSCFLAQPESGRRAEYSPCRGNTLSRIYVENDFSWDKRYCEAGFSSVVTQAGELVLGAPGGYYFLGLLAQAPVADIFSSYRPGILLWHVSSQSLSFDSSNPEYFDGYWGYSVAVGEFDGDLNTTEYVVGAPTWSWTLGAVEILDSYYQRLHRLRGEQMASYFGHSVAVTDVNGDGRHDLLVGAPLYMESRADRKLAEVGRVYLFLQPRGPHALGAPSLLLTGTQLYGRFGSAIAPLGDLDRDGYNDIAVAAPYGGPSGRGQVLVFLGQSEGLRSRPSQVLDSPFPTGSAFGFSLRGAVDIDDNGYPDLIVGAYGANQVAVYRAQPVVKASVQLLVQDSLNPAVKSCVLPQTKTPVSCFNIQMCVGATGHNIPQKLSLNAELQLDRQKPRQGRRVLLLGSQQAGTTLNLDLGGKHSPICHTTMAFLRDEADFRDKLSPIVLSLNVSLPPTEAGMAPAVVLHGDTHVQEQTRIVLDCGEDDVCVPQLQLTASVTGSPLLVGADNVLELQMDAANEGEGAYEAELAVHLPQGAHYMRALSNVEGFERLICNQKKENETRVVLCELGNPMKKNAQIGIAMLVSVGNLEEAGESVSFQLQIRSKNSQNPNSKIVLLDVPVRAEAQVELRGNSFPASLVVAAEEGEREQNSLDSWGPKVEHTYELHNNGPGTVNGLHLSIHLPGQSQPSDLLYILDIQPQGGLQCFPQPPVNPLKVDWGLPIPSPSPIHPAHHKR
Sequence of GP IIb/IIIa (P08514 891-1039 limits assumed): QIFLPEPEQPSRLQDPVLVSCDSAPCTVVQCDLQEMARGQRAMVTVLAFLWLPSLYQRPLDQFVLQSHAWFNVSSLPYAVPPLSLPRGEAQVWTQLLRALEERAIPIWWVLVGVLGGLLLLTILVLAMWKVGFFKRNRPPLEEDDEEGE
Sequence of GP IIb/IIIa (P05106 27-788): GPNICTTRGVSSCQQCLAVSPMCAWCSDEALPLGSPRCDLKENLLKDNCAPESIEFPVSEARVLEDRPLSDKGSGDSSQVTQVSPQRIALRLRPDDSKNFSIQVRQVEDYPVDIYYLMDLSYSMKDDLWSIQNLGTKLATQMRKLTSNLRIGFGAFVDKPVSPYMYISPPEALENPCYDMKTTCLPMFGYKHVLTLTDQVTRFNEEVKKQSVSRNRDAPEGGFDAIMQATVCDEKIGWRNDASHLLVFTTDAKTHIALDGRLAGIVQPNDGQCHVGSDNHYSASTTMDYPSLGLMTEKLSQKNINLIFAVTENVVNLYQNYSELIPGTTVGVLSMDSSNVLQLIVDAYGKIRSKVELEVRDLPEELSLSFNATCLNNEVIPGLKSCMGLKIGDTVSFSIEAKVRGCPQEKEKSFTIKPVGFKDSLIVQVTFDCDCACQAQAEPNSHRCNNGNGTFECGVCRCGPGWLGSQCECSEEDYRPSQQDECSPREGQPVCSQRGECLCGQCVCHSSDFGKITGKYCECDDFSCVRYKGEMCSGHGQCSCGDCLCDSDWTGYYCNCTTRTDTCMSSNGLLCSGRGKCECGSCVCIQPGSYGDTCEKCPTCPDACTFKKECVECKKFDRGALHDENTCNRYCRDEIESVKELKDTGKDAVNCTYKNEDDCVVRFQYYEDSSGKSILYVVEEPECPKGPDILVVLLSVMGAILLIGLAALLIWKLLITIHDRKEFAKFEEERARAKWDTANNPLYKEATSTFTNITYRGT
T1 sequence (P06756 31-889 limits assumed): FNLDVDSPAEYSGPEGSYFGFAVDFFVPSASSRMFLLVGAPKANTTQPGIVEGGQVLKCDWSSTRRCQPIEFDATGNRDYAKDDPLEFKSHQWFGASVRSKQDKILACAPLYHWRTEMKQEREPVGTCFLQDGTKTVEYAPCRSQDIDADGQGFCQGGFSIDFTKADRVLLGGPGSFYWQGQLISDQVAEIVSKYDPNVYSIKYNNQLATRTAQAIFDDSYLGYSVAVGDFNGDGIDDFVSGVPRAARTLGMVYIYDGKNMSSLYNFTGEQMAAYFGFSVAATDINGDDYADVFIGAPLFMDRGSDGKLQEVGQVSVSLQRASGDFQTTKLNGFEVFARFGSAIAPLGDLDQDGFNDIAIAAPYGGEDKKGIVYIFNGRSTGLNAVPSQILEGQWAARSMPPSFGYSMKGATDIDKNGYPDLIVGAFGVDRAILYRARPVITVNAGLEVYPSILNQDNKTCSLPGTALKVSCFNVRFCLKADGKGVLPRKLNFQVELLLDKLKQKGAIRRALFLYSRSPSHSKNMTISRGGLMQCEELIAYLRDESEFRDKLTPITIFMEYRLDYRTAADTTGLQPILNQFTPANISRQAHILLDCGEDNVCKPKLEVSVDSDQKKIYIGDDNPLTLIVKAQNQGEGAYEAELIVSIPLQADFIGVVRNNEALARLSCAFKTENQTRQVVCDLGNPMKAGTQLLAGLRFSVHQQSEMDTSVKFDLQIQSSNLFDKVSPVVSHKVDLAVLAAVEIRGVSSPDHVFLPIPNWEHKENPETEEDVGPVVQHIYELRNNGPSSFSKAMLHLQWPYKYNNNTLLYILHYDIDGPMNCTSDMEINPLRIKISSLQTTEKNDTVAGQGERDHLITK
T1 sequence (P06756 891-1048 limits assumed): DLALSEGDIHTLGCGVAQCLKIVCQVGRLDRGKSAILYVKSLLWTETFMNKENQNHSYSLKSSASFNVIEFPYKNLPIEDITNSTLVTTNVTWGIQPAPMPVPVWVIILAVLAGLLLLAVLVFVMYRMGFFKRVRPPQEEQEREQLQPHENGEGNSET
T1 sequence (P05106 27-788): as the sequence (P05106 27-788) above

Consider `O=C(NC[C@H](O)C(=O)O)c1ccc(N2CCC(NC3=NCCCN3)CC2)cc1` [Example 6, (2S)-Hydroxy-3-[4-{4-(1,4,5,6-tetrahydropyrimidin-2-ylamino)piperidin-1-yl}benzoylamino]-propionic acid], for which the solubility in water result in series [1] is “soluble in water”. Also, the figures for the IC50 in series [2] and in series [3] were 23 nM and 4.8 nM, respectively.
Taken in the same sequence, the figures for `O=C(NC[C@H](O)C(=O)O)c1ccc(N2CCC(NC3=NCCCN3)CC2)c(F)c1` [Example 14, 3-[3-Fluoro-4-{4-(1,4,5,6-tetrahydropyrimidin-2-ylamino)piperidin-1-yl}benzoylamino]-(2S)-hydroxypropionic acid] were “soluble in water”, 2.8 nM and 12 nM.

The values above are taken from patent US6750219B1, “Ω-amino-α-hydroxycarboxylic acid derivatives having integrin ανβ3 antagonistic activity” (Meiji Seika Kaisha, Ltd., priority 1999, dated 2004).
